Assay results published in ChEMBL document CHEMBL1123377, “Potent antagonists of vasopressin antidiuretic activity that lack the beta,beta-cyclopentamethylene-beta-mercaptopropionic acid substitution at position 1” (J Med Chem, 1986).
Activity calls are given as the source filed them. The calls are words filed in the database; no cut-off is given here.

Assays:
[1] = biological target: Vasopressin V2 receptor (Sus scrofa) (UniProt P32307); test: Compound was tested for binding affinity against V2 vasopressin receptor in pig renal medullary membrane preparations using tritiated LVP.; type: cell membranes; settings: Renal medulla
Vasopressin V2 receptor [2] = biological target: T1, Vasopressin V2 receptor (Sus scrofa, UniProt P32307); test: Compound was tested for inhibition against V2 vasopressin receptor in pig renal medullary membrane preparations; e=Partial agonist with a relative Vmax of 14%.; type: functional, cell membranes, Renal medulla
Rattus norvegicus [3] = test: Compound was tested in vivo to lower urine osmolality to 300 mOsm/kg in hydropenic rat preparation; na=No activity; type: functional, organism-based
Sus scrofa = species: Sus scrofa; test: Compound was tested for adenylate cyclase activation in pig renal medullary membrane preparations.; type: functional; settings: Renal medulla
Rattus norvegicus [4] = test: Compound was tested in vivo to lower urine osmolality to 300 mOsm/kg in hydropenic rat preparation.; type: functional
Vasopressin V2 receptor [5] = biological target: T1, Vasopressin V2 receptor; test: Compound was tested for inhibition against V2 vasopressin receptor in pig renal medullary membrane preparations.; type: cell membranes, Renal medulla

T1 sequence (P32307 whole entry): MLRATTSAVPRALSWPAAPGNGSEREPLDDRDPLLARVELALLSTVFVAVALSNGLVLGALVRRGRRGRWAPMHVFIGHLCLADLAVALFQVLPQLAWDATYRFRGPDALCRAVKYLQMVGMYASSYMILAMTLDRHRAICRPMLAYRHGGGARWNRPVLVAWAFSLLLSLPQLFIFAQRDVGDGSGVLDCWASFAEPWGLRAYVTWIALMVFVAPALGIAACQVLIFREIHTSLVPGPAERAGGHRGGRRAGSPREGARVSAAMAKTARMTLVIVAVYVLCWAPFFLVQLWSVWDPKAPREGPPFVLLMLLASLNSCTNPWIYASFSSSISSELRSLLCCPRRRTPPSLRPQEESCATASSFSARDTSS
Chain of Vasopressin V2 receptor (Sus scrofa) (P32307 whole entry): as above

Row | K bind [1] | Compound | ED300 (Rattus norvegicus [4]) | other results
1 | 39 nM | CCOc1ccc(C[C@H]2NC(=O)CC(C)(C)SSC[C@H](C(=O)N3CCC[C@H]3C(=O)N[C@H](CCCN=C(N)N)C(=O)NCC(N)=O)NC(=O)[C@@H](CC(N)=O)NC(=O)[C@H](C(C)C)NC(=O)[C@@H](Cc3ccccc3)NC2=O)cc1 |  | Ki (Vasopressin V2 receptor [2]): Partial agonist; ED300 (Rattus norvegicus [3]): inactive; K act (Sus scrofa): 79 nM
2 | 30 nM | CCOc1ccc(C[C@H]2NC(=O)CC(CC)(CC)SSC[C@H](C(=O)N3CCC[C@H]3C(=O)N[C@H](CCCN=C(N)N)C(N)=O)NC(=O)[C@@H](CC(N)=O)NC(=O)[C@H](C(C)C)NC(=O)[C@@H](Cc3ccccc3)NC2=O)cc1 |  | 
3 | 450 nM | CCOc1ccc(C[C@@H]2NC(=O)CC(CC)(CC)SSC[C@H](C(=O)N3CCC[C@H]3C(=O)N[C@H](CCCN=C(N)N)C(N)=O)NC(=O)[C@@H](CC(N)=O)NC(=O)[C@H](C(C)C)NC(=O)[C@@H](Cc3ccccc3)NC2=O)cc1 | 0.12 mg/kg | 
4 |  | CCOc1ccc(C[C@H]2NC(=O)CC(CC)(CC)SSC[C@@H](C(=O)N3CCC[C@H]3C(=O)N[C@@H](CCCN=C(N)N)C(N)=O)NC(=O)[C@H](CC(N)=O)NC(=O)[C@H](C(C)C)NC(=O)[C@H](Cc3ccccc3)NC2=O)cc1 | 0.012 mg/kg | 
5 | 35 nM | CCOc1ccc(C[C@H]2NC(=O)CC(CC)(CC)SSC[C@H](C(=O)N3CCC[C@H]3C(=O)N[C@H](CCCN=C(N)N)C(=O)NCC(N)=O)NC(=O)[C@@H](CC(N)=O)NC(=O)[C@H](C(C)C)NC(=O)[C@@H](Cc3ccccc3)NC2=O)cc1 |  | 
6 |  | CCOc1ccc(C[C@H]2NC(=O)CC3(CCCCC3)SSC[C@@H](C(=O)N3CCC[C@H]3C(=O)N[C@@H](CCCN=C(N)N)C(=O)NCC(N)=O)NC(=O)[C@H](CC(N)=O)NC(=O)[C@H](C(C)C)NC(=O)[C@H](Cc3ccccc3)NC2=O)cc1 | 0.011 mg/kg | 
7 |  | CCOc1ccc(C[C@H]2NC(=O)CC(CC)(CC)SSC[C@@H](C(=O)N3CCC[C@H]3C(=O)N[C@@H](CCCN=C(N)N)C(=O)NCC(N)=O)NC(=O)[C@H](CC(N)=O)NC(=O)[C@H](C(C)C)NC(=O)[C@H](Cc3ccccc3)NC2=O)cc1 [listing 1 of 2 here] |  | Ki (Vasopressin V2 receptor [5]): 5.3 nM
8 |  | CCOc1ccc(C[C@H]2NC(=O)CC(CC)(CC)SSC[C@@H](C(=O)N3CCC[C@H]3C(=O)N[C@@H](CCCN=C(N)N)C(=O)NCC(N)=O)NC(=O)[C@H](CC(N)=O)NC(=O)[C@H](C(C)C)NC(=O)[C@H](Cc3ccccc3)NC2=O)cc1 [listing 2 of 2 here] | 0.023 mg/kg | 
9 |  | CCOc1ccc(C[C@H]2NC(=O)CC(CC)(CC)SSC[C@@H](C(=O)N3CCC[C@H]3C(=O)N[C@@H](CCCNC(=N)N)C(N)=O)NC(=O)[C@H](CC(N)=O)NC(=O)[C@H](C(C)C)NC(=O)[C@H](Cc3ccccc3)NC2=O)cc1 |  | Ki (Vasopressin V2 receptor [5]): 8.9 nM

Row | Compound | K bind [1] | ED300 (Rattus norvegicus [4]) | other results
10 | CCOc1ccc(C[C@H]2NC(=O)CC3(CCCCC3)SSC[C@H](C(=O)N3CCC[C@H]3C(=O)N[C@H](CCCN=C(N)N)C(=O)NCC(N)=O)NC(=O)[C@@H](CC(N)=O)NC(=O)[C@H](C(C)C)NC(=O)[C@@H](Cc3ccccc3)NC2=O)cc1 | 12 nM |  | 
11 | CCOc1ccc(C[C@H]2NC(=O)CC3(CCCCC3)SSC[C@H](C(=O)N3CCC[C@H]3C(=O)N[C@H](CCCN=C(N)N)C(N)=O)NC(=O)[C@@H](CC(N)=O)NC(=O)[C@H](C(C)C)NC(=O)[C@@H](Cc3ccccc3)NC2=O)cc1 | 12 nM | 0.01 mg/kg | 
12 | CCOc1ccc(C[C@@H]2NC(=O)CC3(CCCCC3)SSC[C@H](C(=O)N3CCC[C@H]3C(=O)N[C@H](CCCN=C(N)N)C(N)=O)NC(=O)[C@@H](CC(N)=O)NC(=O)[C@H](C(C)C)NC(=O)[C@@H](Cc3ccccc3)NC2=O)cc1 | 280 nM | 0.3 mg/kg | 
